{
  "source": "patent US8586530B2",
  "about": "“Modulation of inhibition of ferrochelatase by N-methyl protoporphyrin” (University of South Florida, priority 2006, dated 2013)",
  "key": {"[1]": {"molecular_target": "T1, ferrochelatase variant P255R (Mus musculus, UniProt P22315, P308R)", "T1 construct": "In wild-type, murine, mature ferrochelatase, five tryptophan residues; penta-histidine tag (N); made in house; host or cells: E. coli BL21(DE3)", "T1 sequence (P22315 54-422 P308R)": "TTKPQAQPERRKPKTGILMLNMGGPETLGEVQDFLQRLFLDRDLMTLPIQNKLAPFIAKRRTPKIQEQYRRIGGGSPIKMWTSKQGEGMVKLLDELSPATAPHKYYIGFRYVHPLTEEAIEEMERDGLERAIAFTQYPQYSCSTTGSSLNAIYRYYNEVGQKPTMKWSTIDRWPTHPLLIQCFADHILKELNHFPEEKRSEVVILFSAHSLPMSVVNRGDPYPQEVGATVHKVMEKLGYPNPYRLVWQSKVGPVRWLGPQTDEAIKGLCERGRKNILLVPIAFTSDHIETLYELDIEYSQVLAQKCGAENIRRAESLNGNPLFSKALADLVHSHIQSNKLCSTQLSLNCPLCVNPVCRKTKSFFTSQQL", "assay": "Transient kinetic analysis of NMPP inhibition (stopped-flow, zinc-protoporphyrin formation)", "type": "biochemical, murine", "method": "(§1) Enzyme (0.5 μM) was reacted with protoporphyrin (5 μM) and zinc-acetate (15 μM) in the presence of various concentrations of NMPP. The pseudo first-order rate constant k was obtained from analysis of the time course (see Materials and Methods and FIG. 4) and plotted against NMPP concentration. The enzymes used in each set were: A. wild-type ferrochelatase; B. variant P255R; C. variant P255G.\nIn order to obtain the pseudo first-order rate constants for NMPP binding, the kinetic traces for zinc-protoporphyrin formation in the presence of various concentrations of inhibitor were fitted to equation 3. […] The data were fit to equation 1 for a two step process:\n[formula] where k is the pseudo first-order rate constant for the approach to the steady-state phase, I0 is the inhibitor concentration, S0 is the initial substrate concentration,\n[formula] is the apparent inhibition constant, Ki^app, and k2 and k−2 are the second step forward and reverse rate constants, respectively. […] A two kinetic step process for binding of NMPP to either wild-type ferrochelatase or P255R (i.e., a fast, initial step for NMPP binding to the enzyme, followed by a slow step, possibly related to a conformational rearrangement of the protein-inhibitor complex) is consistent with the porphyrin-triggered conformational change of the active-site pocket deduced from the analysis of the crystal structure of B. subtilis ferrochelatase with bound N-methyl mesoporphyrin in comparison with that of the unliganded protein. […] Therefore the diminished inhibition of variant P255R by NMPP (Ki^app=1 μM vs. Ki^app=3 nM for wild-type ferrochelatase) cannot be accounted for by differences in these rates.\n(§2) Transient Kinetic Analysis. The kinetic steps involved in NMPP binding to ferrochelatase were assessed using stopped-flow absorption spectroscopic analysis by monitoring the enzymatic reaction in the presence of various concentrations of the inhibitor NMPP. The reactions were performed using a rapid scanning stopped-flow spectrophotometer (model RSM-1000; OLIS Inc.), equipped with a stopped-flow mixer and an observation chamber with an optical path-length of 4 mm. The dead time of the instrument is ˜2 ms. Scan spectra spanning the wavelength range of 347 to 574 nm were collected at a rate of 1000 scan/sec. The syringes containing the reaction components and the stopped-flow cell were maintained at 30° C. using an external water-bath. The concentrations of reagents loaded into each syringe were two-fold greater than the final concentrations in the observation chamber. Enzymatic activity was monitored by following the increase in absorbance at 420 nm for zinc-protoporphyrin production using Zn^2+ and protoporphyrin as substrates.\nThe enzyme and substrate stock solutions were diluted in 100 mM Tris-acetate, pH 8.0, containing 0.5% Tween-80. The stock solutions for substrates and inhibitor were prepared as follows: A 3 mM zinc-acetate solution was made by dissolving zinc-acetate in distilled and deionized H2O. A 200 μM protoporphyrin solution was prepared by dissolving protoporphyrin 1× in 50 mM NH4OH containing 0.5% Tween-80. A 2 mM NMPP solution was prepared by dissolving NMPP in 100 mM NH4OH containing 0.5% Tween-80. Typically, a 2 mL solution that was 1 μM in ferrochelatase and 10 μM in protoporphyrin was pre-incubated on ice for 30 min. The porphyrin-enzyme solution was titrated with NMPP. The mixture was subsequently transferred to one of the stopped-flow syringes. The other stopped-flow syringe was loaded with a reaction buffer solution of ˜2 mL that was 30 μM in zinc-acetate. The enzymatic reaction was initiated by mixing the contents from both syringes and reaction progression was monitored by following the increase in absorbance at 420 nm. The data were analyzed by fitting the observed absorbance values to equation 4: […]"}, "[2]": {"molecular_target": "T2, ferrochelatase variant P255G (Mus musculus, UniProt P22315, P308G)", "T2 construct": "In wild-type, murine, mature ferrochelatase, five tryptophan residues; penta-histidine tag (N); made in house; host or cells: E. coli BL21(DE3)", "T2 sequence (P22315 54-422 P308G)": "T1 sequence (P22315 54-422 P308R) with R255G", "assay": "Transient kinetic analysis of NMPP inhibition (stopped-flow, zinc-protoporphyrin formation)", "type": "biochemical, murine", "method": "as §1\nThe pseudo-first order rate constant dependence on NMPP concentration was best described by equation 2:\n[formula] and k−1 are the forward and reverse rate constants, respectively.\nAlthough NMPP binding to P255G occurred via a one-step reaction, the values for the rate constants associated with this step (k1 and k−1) were similar to those determined for the rate-limiting step of the kinetic pathway for inhibition of ferrochelatase and P255R by NMPP.\nas §2, with “Scan spectra spanning the wavelength range of 347 to 574 nm were collected at a rate of 1000 scan/sec. The syringes containing the reaction components and the stopped-flow cell were maintained at 30° C. using an external water-bath. The concentrations of reagents loaded into each syringe were two-fold greater than the final concentrations in the observation chamber.” left out\nThe enzyme and substrate stock solutions were diluted in 100 mM Tris-acetate, pH 8.0, containing 0.5% Tween-80. […] The enzymatic reaction was initiated by mixing the contents from both syringes and reaction progression was monitored by following the increase in absorbance at 420 nm. The data were analyzed by fitting the observed absorbance values to equation 4:\n[formula] where A is the observed absorbance, A0 is the initial absorbance, vs is the steady-state velocity, v0 is the initial velocity and k is the pseudo-first order rate constant for inhibitor binding. […]"}},
  "note": "Residue numbers refer to the chain shown, from its start.",
  "data": [
    {"substance": "N-methyl protoporphyrin [NMPP]", "values": [
      {"measurement": "second step forward rate constant k2", "setting": "[1]", "result": 8.3, "unit": "s⁻¹"},
      {"measurement": "second step reverse rate constant k−2", "setting": "[1]", "result": 19.3, "unit": "s⁻¹"},
      {"measurement": "Ki", "setting": "[1]; two-step fit (equation 1), read-out: apparent inhibition constant Ki^app", "result": 1000, "unit": "nM"},
      {"measurement": "forward rate constant (one-step binding)", "setting": "[2]", "result": "8.2e+06", "unit": "M⁻¹ s⁻¹"},
      {"measurement": "reverse rate constant k−1 (one-step binding)", "setting": "[2]", "result": 18.7, "unit": "s⁻¹"},
      {"measurement": "Ki", "setting": "[2]; one-step fit (equation 2), from the rate constants, read-out: apparent inhibition constant Ki^app", "result": 2300, "unit": "nM"}
    ]}
  ]
}
